From ChEMBL document CHEMBL5576046, “Replacement of sulfonamide by sulfoximine within a helicase-primase inhibitor with restricted flexibility” (Bioorg Med Chem Lett, 2024)

What was measured:
Type in all cases: functional, organism-based
Human alphaherpesvirus 1 [1] = assay: Antiviral activity against HSV-1 by CPE assay
Human alphaherpesvirus 2 [2] = assay: Antiviral activity against HSV-2
Human alphaherpesvirus 1 [3] = assay: Antiviral activity against HSV-1
Human alphaherpesvirus 2 [4] = assay: Antiviral activity against HSV-2 infected in human ARPE-19 cells assessed as inhibition of viral replication incubated for 16 hrs by fluorescence based analysis; conditions: Human alphaherpesvirus 2, ARPE-19, 16 h

Row | IC50 (Human alphaherpesvirus 2 [2]; Human alphaherpesvirus 2) | IC50 (Human alphaherpesvirus 2 [4]) | IC50 (Human alphaherpesvirus 1 [1]) | IC50 (Human alphaherpesvirus 2 [2]) | Compound | further results
1 | 0.016 µM |  |  |  | Cc1nc(N(C)C(=O)[C@@H]2Cc3ccc(-c4cc(F)ccc4F)cc3C2)sc1S(N)(=O)=O | IC50 (Human alphaherpesvirus 1 [1]; Human alphaherpesvirus 1): 0.001 µM
2 | 0.028 µM |  |  |  | Cc1nc(N(C)C(=O)Cc2ccc(-c3cc(F)ccc3F)cc2)sc1S(C)(=N)=O (stereo unspecified) | IC50 (Human alphaherpesvirus 1 [3]): 0.019 µM
3 |  | 0.006 µM |  |  | NS(=O)(=O)c1cc2c(cc1F)CCN2C(=O)[C@@H]1Cc2ccc(-c3ccccn3)cc2C1 | 
4 |  |  | 0.3 µM | 1.25 µM | Cc1nc(N(C)C(=O)C2Cc3ccc(-c4cc(F)ccc4F)cc3C2)sc1S(C)(=N)=O (stereo in doubt; 2b) | 
5 |  |  | 0.4 µM | 2 µM | Cc1nc(N(C)C(=O)C2Cc3ccc(-c4cc(F)ccc4F)cc3C2)sc1S(C)(=N)=O (stereo in doubt; 2c) | 
6 |  |  | 8 µM | 50 µM | Cc1nc(N(C)C(=O)C2Cc3ccc(-c4cc(F)ccc4F)cc3C2)sc1S(C)(=N)=O (stereo in doubt; 2d) | 
7 | 0.02 µM |  |  |  | Cc1nc(N(C)C(=O)Cc2ccc(-c3ccccn3)cc2)sc1S(N)(=O)=O [PRITELIVIR] | IC50 (Human alphaherpesvirus 1 [3]): 0.02 µM
8 |  | 0.012 µM |  |  | NS(=O)(=O)c1cc2c(cc1F)CCN2C(=O)[C@@H]1Cc2ccc(-c3cc(F)ccc3F)cc2C1 | 
9 |  | 0.048 µM |  |  | CS(=N)(=O)c1cc2c(cc1F)CCN2C(=O)[C@@H]1Cc2ccc(-c3cc(F)ccc3F)cc2C1 (stereo partly specified) | 
10 |  |  |  |  | Cc1nc(N(C)C(=O)[C@@H]2Cc3ccc(-c4ccccn4)cc3C2)sc1S(N)(=O)=O | IC50 (Human alphaherpesvirus 1 [1]; Human alphaherpesvirus 1): 0.007 µM
11 | 16 µM |  |  |  | Cc1nc(N(C)C(=O)[C@H]2Cc3ccc(-c4cc(F)ccc4F)cc3C2)sc1S(N)(=O)=O | IC50 (Human alphaherpesvirus 1 [1]; Human alphaherpesvirus 1): 2 µM
12 |  |  | 25 µM | 25 µM | Cc1nc(N(C)C(=O)C2Cc3ccc(-c4cc(F)ccc4F)cc3C2)sc1S(C)(=N)=O (stereo in doubt; 2a) | 
13 |  | 0.037 µM |  |  | CS(=N)(=O)c1cc2c(cc1F)CCN2C(=O)[C@@H]1Cc2ccc(-c3ccccn3)cc2C1 (stereo partly specified) | 
